From patent US20200138081A1, “Biologically active food additive for preventing and treating acute respiratory diseases and flu” (Parapharm LLC, priority 2013, published 2020)

Legend:
Type in all cases: in vivo, human
[1] = system: IgG; assay: Example 6 ADBH, 25(OH)D and combination, IgG (immunoturbidimetric)
Source text: (§1) The object was to study the effect of active metabolites of vitamin D, as exemplified by 25 (OH)D, on the immune status in participants, judging by the level of immunoglobulines IgG, IgA, and IgM. 32 participants in the age range between 38 and 62 (23 females and 9 males) residing in Penza had no acute diseases and were apparently healthy. The immune status was examined before the therapy started and 30 days after that. […] Immunoglobulines were detected by an immunoturbidimetric method, using an assay kit of DiaSys Diagnostic Systems (Germany).
(§2) Table 3 presents mean values (M±m) of specific antibody response for main immunoglobulin classes IgG, IgA, and IgM.

[2] = system: IgM; assay: Example 6 ADBH, 25(OH)D and combination, IgM (immunoturbidimetric)
Source text: as §1, §2

[3] = system: IgA; assay: Example 5 comparative effect of ingredients and additive, serum IgA
Source text: (§3) The object of the study lied in analyzing comparative effect of main ingredients of the additive (the ADBH and vitamin D, separately) on the immune system of the body by variations of the main classes of immunoglobulins IgG, IgA, and IgM in blood serum. As stated previously, IgG is the main serum immunoglobuline of a healthy human amounting to 70-75% of the whole immunoglobulin fraction. It is especially active in the immune response. The serous IgA makes up to 15-20% of the whole immunoglobulin fraction. […] The IgM immunoglobulins are capable of neutralizing foreign particles, effectively activating complement, triggering defensive response mechanisms in the body.
(§4) 29 participants, 37 to 60 years old, residing in the city of Penza and suffering from frequent catarrhal diseases were examined, and low levels of immunoglobulin reference values were uncovered. In view of the task set, immunopotentiation was administered to them. Depending on the method of immune correction, the participants were divided into three groups:1st group—nine persons took a tablet of the ADBH (150 mg) twice a day for 30 days, 2nd group—8 persons took a tablet of vitamin D3 (500 IE) twice a day for 30 days, and 3rd group—12 persons took a tablet of the proposed additive (150 mg of the ADBH and 500 IE of vitamin D3) by one tablet twice a day for 30 days.

[4] = system: IgG; assay: Example 5 comparative effect of ingredients and additive, serum IgG
Source text: as §3, §4

[5] = system: IgM; assay: Example 5 comparative effect of ingredients and additive, serum IgM
Source text: as §3, §4

[6] = system: ARD; assay: Example 5 catamnesis, ARD during six months after the study; conditions: during six months after the study was over
Experimental: as §4
In other words, an unexpected result of the combined use of the ingredients dramatically differs from that where the ingredients are employed individually. […] The result can probably be explained by the presence of an enhancer of one ingredient of the proposed additive in the other which is on full display only when the both ingredients are used jointly.

[7] = After one-month treatment, twice a day (ADBH 150 mg, 25(OH)D 50 IE; or both in one tablet)
[8] = Before, apparently healthy participants 38 to 62 years
[9] = After, one tablet twice a day for 30 days (ADBH 150 mg; vitamin D3 500 IE; additive 150 mg ADBH + 500 IE D3)
[10] = Before, participants 37 to 60 years with frequent catarrhal diseases

SMILES | IgG, M ± m [1, 7] | IgG, M ± m [1, 8] | IgM, M ± m [2, 7] | IgM, M ± m [2, 8] | IgA, M ± m [3, 9] | IgA, M ± m [3, 10] | IgG, M ± m [4, 9] | IgG, M ± m [4, 10] | IgM, M ± m [5, 9] | IgM, M ± m [5, 10] | falling ill with ARD in catamnesis [6]
C=C1CC[C@H](O)C/C1=C/C=C1\CCC[C@]2(C)[C@@H]([C@H](C)CCCC(C)(C)O)CC[C@@H]12 [25 (OH)D] | 12.39 | 12.21 | 1.82 | 1.91 |  |  |  |  |  |  | 
C=C1CC[C@H](O)C/C1=C/C=C1\CCC[C@]2(C)[C@@H]([C@H](C)CCCC(C)C)CC[C@@H]12 [vitamin D3] |  |  |  |  | 1.93 | 1.81 | 12.27 | 12.41 | 1.82 | 1.91 | had those diseased
